Experimental data published in patent publication US10329309B2, “3-(3H-imidazo[4,5-B]pyridin-2-yl)-1H-pyrazolo[4,3-B]pyridines and therapeutic uses thereof” (Samumed, LLC, priority 2015, dated 2019).

Columns and labels:
[1] = test system: Wnt activity (Sp5-Luc reporter, SW480 colon carcinoma cells); assay: Screening assay for Wnt activity: Sp5-Luc reporter gene assay in SW480 cells; assay type: cell-based; settings: Homo sapiens; for inhibition at 10 µM: 10 μM compound, read-out: percent inhibition at 10 μM (given for EC50 of >10 μM); for EC50: overnight incubation, 10-point dose-response from 10 μM
How it was run: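 SW480 cells stably carrying Sp5-Luc reporter (eight TCF/LEF sites) plated at 4,000/well in 1% FBS medium with compound (10-point 1:3 series from 10 μM, 0.1% DMSO) overnight at 37 °C. BrightGlo luminescence normalized to DMSO; EC50 by four-parameter fit, else % inhibition at 10 μM.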

[2] = test system: primary human mesenchymal stem cells (hMSCs); assay: Induction of chondrogenesis in primary human mesenchymal stem cells (nodule imaging, Rhodamine B/Nile Red); assay type: cell-based; settings: hMSC chondrogenesis; for Emax: TGF-β3 as positive control, read-out: Max. Activity as % TGF-β3 activity; for EC50: concentration required to induce 50% levels of chondrogenesis vs TGF-β3, read-out: Conc (nM) of 50% TGF-β3 activity
Procedure: Representative compounds were screened using primary human mesenchymal stem cells (hMSCs) to determine their ability to induce chondrogenesis (process by which cartilage is developed).
Primary human mesenchymal stem cells (hMSCs) were purchased from Lonza (Walkersville, Md.) and expanded in Mesenchymal Stem Cell Growth Media (Lonza). Cells between passage 3 and 6 were used for the experiments.
Each compound was dissolved in DMSO as a 10 mM stock and used to prepare compound source plates. For the 96 well assay, serial dilution (1:3, 6-point dose-response curves from 2700 nM to 10 nM) and compound transfer was performed using the ECHO 550 (Labcyte, Sunnyvale, Calif.) into 96-well clear bottom assay plates (Greiner Bio-One) with appropriate DMSO backfill for a final DMSO concentration of 0.03%. hMSCs were plated at 20,000 cells/well in 250 μL/well Incomplete Chondrogenic Induction Medium (Lonza; DMEM, dexamethasone, ascorbate, insulin-transferrin-selenium [ITS supplement], gentamycin-amphotericin [GA-1000], sodium pyruvate, proline and L-glutamine). TGF-−3 (10 ng/mL) was used as a positive control for differentiation while negative control wells were treated with 75 nL DMSO for normalization and calculating EC50 values. For the 384 well assay, serial dilution (1:3, 8-point dose-response curves from 5000 nM to 2.2 nM) and compound transfer was performed using the ECHO 550 (Labcyte, Sunnyvale, Calif.) into 384-well clear bottom assay plates (Greiner Bio-One) with appropriate DMSO backfill for a final DMSO concentration of 0.03%. hMSCs were plated at 8,000 cells/well in 80 μL/well Incomplete Chondrogenic Induction Medium (Lonza; DMEM, dexamethasone, ascorbate, insulin-transferrin-selenium [ITS supplement], gentamycin-amphotericin [GA-1000], sodium pyruvate, proline and L-glutamine). TGF-β3 (10 ng/mL) was used as a positive control for differentiation while negative control wells were treated with 25 nL DMSO for normalization and calculating EC50 values. Cells were incubated at 37° C. and 5% CO2 for 6 days. To image chondrogenic nodules, the cells were fixed using 4% formaldehyde (Electron Microscopy Sciences), and stained with 2 μg/mL Rhodamine B (Sigma-Aldrich) and 20 μM Nile Red (Sigma-Aldrich) [Johnson K., et. al, A Stem Cell-Based Approach to Cartilage Repair, Science, (2012), 336(6082), 717-721]. The nodules imaged (25 images per well for 96 well plates and 9 images per well for 384 well plates at 10× magnification) by excitation at 531 nm and emission at 625 nm and quantified using the CellInsight CX5 (Thermo Scientific). Area of nodules in each well was normalized to the average of 3 DMSO treated wells on the same plate using Excel (Microsoft Inc.). The normalized averages (fold change over DMSO) of 2 or 3 replicate wells for each compound concentration were calculated. Due to solubility limitations of some of the compounds, curve fitting was incomplete leading to inaccurate EC50 determinations.
Using TGF-β3 as a positive control, the concentration of representative compounds required to induce 50% levels of chondrogenesis is reported. In addition, the maximum activity of each compound and the respective dose that each compound reached maximum chondrogenesis activity is reported.

Row | SMILES | EC50 [1] | EC50 [2] | inhibition at 10 µM [1] | Emax [2]
1 | Fc1cccc(-c2ccnc3[nH]c(-c4n[nH]c5ccc(-c6ccncc6)nc45)nc23)c1 [Compound 18, 3-(7-(3-fluorophenyl)-3H-imidazo[4,5-b]pyridin-2-yl)-5-(pyridin-4-yl)-1H-pyrazolo[4,3-b]pyridine] | > 10000 nM |  | 21% | 42%
2 | CC(C)(C)C(=O)Nc1cncc(-c2ccc3[nH]nc(-c4nc5c(-c6ccc(F)cc6)ccnc5[nH]4)c3n2)c1 [Compound 36, N-(5-(3-(7-(4-fluorophenyl)-3H-imidazo[4,5-b]pyridin-2-yl)-1H-pyrazolo [4,3-b]pyridin-5-yl)pyridin-3-yl)pivalamide] | > 10000 nM | 10 nM | 28.4% | 63%
3 | CC(C)C(=O)Nc1cncc(-c2ccc3[nH]nc(-c4nc5c(-c6ccccc6F)ccnc5[nH]4)c3n2)c1 [Compound 65, N-(5-(3-(7-(2-fluorophenyl)-3H-imidazo[4,5-b]pyridin-2-yl)-1H-pyrazolo [4,3-b]pyridin-5-yl)pyridin-3-yl)isobutyramide] | > 10000 nM | 10 nM | 14.3% | 197%
4 | CC(C)C(=O)Nc1cncc(-c2ccc3[nH]nc(-c4nc5c(-c6cccnc6)ccnc5[nH]4)c3n2)c1 [Compound 93, N-(5-(3-(7-(pyridin-3-yl)-3H-imidazo[4,5-b]pyridin-2-yl)-1H-pyrazolo[4,3-b]pyridin-5-yl)pyridin-3-yl)isobutyramide] | > 10000 nM |  | 10.2% | 26%
5 | Cc1ccncc1-c1ccc2[nH]nc(-c3nc4c(-c5ccncc5)ccnc4[nH]3)c2n1 [Compound 117, 5-(4-methylpyridin-3-yl)-3-(7-(pyridin-4-yl)-3H-imidazo[4,5-b]pyridin-2-yl)-1H-pyrazolo[4,3-b]pyridine] | > 10000 nM | 100 nM | 4.8% | 147%
6 | CCCC(=O)Nc1cncc(-c2ccc3[nH]nc(-c4nc5c(-c6ccncc6)ccnc5[nH]4)c3n2)c1 [Compound 129, N-(5-(3-(7-(pyridin-4-yl)-3H-imidazo[4,5-b]pyridin-2-yl)-1H-pyrazolo[4,3-b]pyridin-5-yl)pyridin-3-yl)butyramide] | > 10000 nM |  | 4.3% | 50%
7 | O=C(Nc1cncc(-c2ccc3[nH]nc(-c4nc5c(-c6ccncc6)ccnc5[nH]4)c3n2)c1)C1CCCCC1 [Compound 135, N-(5-(3-(7-(pyridin-4-yl)-3H-imidazo[4,5-b]pyridin-2-yl)-1H-pyrazolo[4,3-b]pyridin-5-yl)pyridin-3-yl)cyclohexanecarboxamide] | > 10000 nM | 10 nM | 10.4% | 69%
8 | CCNCc1cncc(-c2ccc3[nH]nc(-c4nc5c(-c6ccccn6)ccnc5[nH]4)c3n2)c1 [Compound 146, N-((5-(3-(7-(pyridin-2-yl)-3H-imidazo[4,5-b]pyridin-2-yl)-1H-pyrazolo[4,3-b]pyridin-5-yl)pyridin-3-yl)methyl)ethanamine] | > 10000 nM |  | 10.6% | 28%
9 | CCCCC(=O)Nc1cncc(-c2ccc3[nH]nc(-c4nc5c(-c6ccccn6)ccnc5[nH]4)c3n2)c1 [Compound 159, N-(5-(3-(7-(pyridin-2-yl)-3H-imidazo[4,5-b]pyridin-2-yl)-1H-pyrazolo[4,3-b]pyridin-5-yl)pyridin-3-yl)pentanamide] | > 10000 nM | 100 nM | 12.6% | 60%
10 | CCC(=O)Nc1cncc(-c2ccc3[nH]nc(-c4nc5c(N6CCCCC6)ccnc5[nH]4)c3n2)c1 [Compound 169, N-(5-(3-(7-(piperidin-1-yl)-3H-imidazo[4,5-b]pyridin-2-yl)-1H-pyrazolo[4,3-b]pyridin-5-yl)pyridin-3-yl)propionamide] | > 10000 nM |  | 44.2% | 38%
11 | CN(C)c1cncc(-c2ccc3[nH]nc(-c4nc5c(N6CCCCC6)ccnc5[nH]4)c3n2)c1 [Compound 175, N,N-dimethyl-5-(3-(7-(piperidin-1-yl)-3H-imidazo[4,5-b]pyridin-2-yl)-1H-pyrazolo [4,3-b]pyridin-5-yl)pyridin-3-amine] | > 10000 nM |  | 0% | 42%
12 | CN(C)Cc1cncc(-c2ccc3[nH]nc(-c4nc5c(N6CCCCC6)ccnc5[nH]4)c3n2)c1 [Compound 181, N,N-dimethyl-1-(5-(3-(7-(piperidin-1-yl)-3H-imidazo[4,5-b]pyridin-2-yl)-1H-pyrazolo[4,3-b]pyridin-5-yl)pyridin-3-yl)methanamine] | > 10000 nM |  | 2.2% | 44%
13 | Cc1cn(-c2ccnc3[nH]c(-c4n[nH]c5ccc(-c6cncc(NC(=O)CC(C)C)c6)nc45)nc23)cn1 [Compound 198, 3-methyl-N-(5-(3-(7-(4-methyl-1H-imidazol-1-yl)-3H-imidazo[4,5-b]pyridin-2-yl)-1H-pyrazolo[4,3-b]pyridin-5-yl)pyridin-3-yl)butanamide] | > 10000 nM |  | 27.6% | 27%

Further lines, with some results ahead:

Row | EC50 [1] | EC50 [2] | SMILES | inhibition at 10 µM [1] | Emax [2]
14 | > 10000 nM |  | CCC(=O)Nc1cncc(-c2ccc3[nH]nc(-c4nc5c(-c6cccc(F)c6)ccnc5[nH]4)c3n2)c1 [Compound 1, N-(5-(3-(7-(3-fluorophenyl)-3H-imidazo[4,5-b]pyridin-2-yl)-1H-pyrazolo [4,3-b]pyridin-5-yl)pyridin-3-yl)propionamide] | 51.6% | 29%
15 | 885 nM | 900 nM | Fc1cccc(-c2ccnc3[nH]c(-c4n[nH]c5ccc(-c6cncc(CN7CCC(F)(F)C7)c6)nc45)nc23)c1 [Compound 26, 5-(5-((3,3-Difluoropyrrolidin-1-yl)methyl)pyridin-3-yl)-3-(7-(3-fluorophenyl)-3H-imidazo[4,5-b]pyridin-2-yl)-1H-pyrazolo[4,3-b]pyridine] |  | 247%
16 | > 10000 nM | 30 nM | Fc1ccc(-c2ccnc3[nH]c(-c4n[nH]c5ccc(-c6cncnc6)nc45)nc23)cc1 [Compound 55, 3-(7-(4-Fluorophenyl)-3H-imidazo[4,5-b]pyridin-2-yl)-5-(pyrimidin-5-yl)-1H-pyrazolo[4,3-b]pyridine] | 20.2% | 99%
17 | > 10000 nM | 10 nM | Nc1cncc(-c2ccc3[nH]nc(-c4nc5c(-c6ccccc6F)ccnc5[nH]4)c3n2)c1 [Compound 59, 5-(3-(7-(2-fluorophenyl)-3H-imidazo[4,5-b]pyridin-2-yl)-1H-pyrazolo[4,3-b]pyridin-5-yl)pyridin-3-amine] | 46.5% | 127%
18 | > 10000 nM | 10 nM | O=C(Cc1ccccc1)Nc1cncc(-c2ccc3[nH]nc(-c4nc5c(-c6ccncc6)ccnc5[nH]4)c3n2)c1 [Compound 122, 2-phenyl-N-(5-(3-(7-(pyridin-4-yl)-3H-imidazo[4,5-b]pyridin-2-yl)-1H-pyrazolo[4,3-b]pyridin-5-yl)pyridin-3-yl)acetamide] | 8.4% | 63%
19 | > 10000 nM | 10 nM | Cc1cn(-c2ccnc3[nH]c(-c4n[nH]c5ccc(-c6cncc(NC(=O)C(C)(C)C)c6)nc45)nc23)cn1 [Compound 204, N-(5-(3-(7-(4-methyl-1H-imidazol-1-yl)-3H-imidazo[4,5-b]pyridin-2-yl)-1H-pyrazolo[4,3-b]pyridin-5-yl)pyridin-3-yl)pivalamide] | 12.2% | 70%
